Experimental data as given in BindingDB's records for doi:10.7270/Q2TX3CTT (Broad Institute, 2010).

Molecular target: Glycogen synthase kinase-3 beta (Homo sapiens, UniProt P49841)
Assay: GSK3beta kinase inhibitor potency, dose response, biochemical, luminescence, cell-free homogeneous, retest (AID 434954)

Glycogen synthase kinase-3 beta, sequence (P49841 whole entry): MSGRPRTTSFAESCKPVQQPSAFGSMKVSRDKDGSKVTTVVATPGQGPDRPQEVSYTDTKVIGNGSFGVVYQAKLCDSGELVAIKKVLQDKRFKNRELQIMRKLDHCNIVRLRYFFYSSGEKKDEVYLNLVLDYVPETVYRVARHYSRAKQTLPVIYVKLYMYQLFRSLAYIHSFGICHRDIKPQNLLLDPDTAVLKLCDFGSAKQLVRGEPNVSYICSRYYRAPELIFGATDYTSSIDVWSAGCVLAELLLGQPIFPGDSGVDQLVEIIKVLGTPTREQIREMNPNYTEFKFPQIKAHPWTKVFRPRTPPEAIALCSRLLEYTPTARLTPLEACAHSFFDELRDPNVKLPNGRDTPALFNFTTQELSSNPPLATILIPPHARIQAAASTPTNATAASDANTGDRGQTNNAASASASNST

O=c1[nH]nc(SCCS(=O)(=O)c2ccc(F)cc2)n1-c1ccc2c(c1)OCCO2 [SMR000456167]
EC50: 24.1 µM

O=C(Nc1cc(-c2ccccc2)n[nH]1)c1ccccc1 [SMR000459251]
EC50: > 300 µM

O=C(OCCCCOC(=O)c1ccccc1)c1ccccc1 [SMR000459786]
EC50: > 300 µM

Cc1cc(N2CCN(C(=O)c3ccco3)CC2)c2ccccc2n1 [SMR000460267]
EC50: > 300 µM

COc1ccccc1NC(=S)NC1CCCCCCCCCCC1 [SMR000460399]
EC50: > 300 µM

CN=C(C)C(C(=O)OC)C(=O)c1ccc(Cl)cc1Cl (stereo not drawn) [SMR000461254]
EC50: > 300 µM

CCC(C)Oc1cc(-c2ccnc(Nc3cccc(Cl)c3)n2)ccn1 (stereo not drawn) [SMR000463563]
EC50: 5.38 µM

CN(C)CCCNc1ccc(-c2cc(Nc3cccc(Cl)c3)ncn2)cn1 [SMR000463569]
EC50: 12.2 µM

O=C(Nc1ccc(O)c2c(=O)cc(-c3ccccc3Cl)oc12)c1cccs1 [SMR000465219]
EC50: 16.7 µM

CCc1ccc(S(=O)(=O)Nc2ccc(O)c3c(=O)cc(-c4ccccc4Cl)oc23)cc1 [SMR000465243]
EC50: > 300 µM

CCC(=O)c1c(CC)c2n3c1CC[C@H]3CCC2 [SMR000469597]
EC50: > 300 µM

CC(C)=CCc1c(O)cc2c(=O)c3ccc(O)cc3oc2c1O [SMR000470963]
EC50: > 300 µM

Nc1nc(N)nc(-c2cc(Cl)ccc2Cl)n1 [SMR000471621]
EC50: > 300 µM

CCOc1ccccc1Nc1cc(C)nc2ccc(C)cc12 [SMR000473096]
EC50: > 300 µM

OC(COc1ccc(OCC(O)CN2CCN(Cc3ccccc3)CC2)cc1)CN1CCN(Cc2ccccc2)CC1 (stereo not drawn) [SMR000473226]
EC50: > 300 µM

O=C(O)c1ccccc1NCc1cccnc1 [SMR000473304]
EC50: > 300 µM

COc1cc(C2C(C(=O)c3cccs3)C(=O)C(=O)N2CCN2CCOCC2)ccc1OCCC(C)C (stereo not drawn) [SMR000476070]
EC50: > 300 µM

CC(C)(C)c1csc(NC(=O)c2cccnc2)n1 [SMR000496644]
EC50: > 300 µM

Cc1cc(OCCCn2ccnc2)ccc1[N+](=O)[O-] [SMR000497363]
EC50: > 300 µM

O=C(Nc1ccccn1)c1ccc(C(=O)Nc2ccccn2)cc1 [SMR000502618]
EC50: > 300 µM

COc1ccc(CCNc2nc(-c3ccc(O)cc3)cs2)cc1OC [SMR000502906]
EC50: > 300 µM

O=C(O)c1cccc(CSc2nnc(-c3cccnc3)o2)c1 [SMR000503811]
EC50: > 300 µM

O=C(OCCN1CCOCC1)c1ccc(O)cc1 [SMR000513589]
EC50: > 300 µM

O=C(Nc1ccc(Cl)c(Cl)c1)Nc1ccccn1 [SMR000515062]
EC50: 47.2 µM

Cc1cc(C)n(S(=O)(=O)c2ccc(C)c(C)c2)n1 [SMR000515396]
EC50: > 300 µM

CC1(C)CC(=O)C2C(=Nc3ccccc3NC2c2ccc(F)cc2)C1 (stereo not drawn) [SMR000515995]
EC50: > 300 µM

COc1ccc(OC)c(C2Nc3ccccc3N=C3CC(C)(C)CC(=O)C32)c1 (stereo not drawn) [SMR000515998]
EC50: > 300 µM

COc1cc(OC)c(OC)cc1CNCC1COc2ccccc2O1 (stereo not drawn) [SMR000516658]
EC50: > 300 µM

CC(=O)c1cccc(Nc2nc(-c3ccccc3)nc3ccccc23)c1 [SMR000516691]
EC50: > 300 µM

Cc1ccc(C(=O)/C=C/c2ccc3ncccc3c2)cc1 [SMR000516943]
EC50: > 300 µM

COc1ccc(C=C2SC(Nc3ccccc3OC)=NC2=O)cc1 [SMR000517219]
EC50: > 300 µM

CCOC(=O)c1cnc2ccc(OC)cc2c1NCCN1CCOCC1 [SMR000518517]
EC50: > 300 µM

COc1cc(C(=O)N2CCN(c3ccccn3)CC2)cc(OC)c1OC [SMR000518691]
EC50: 45.9 µM

COc1ccccc1/C=C1\C(=O)Nc2ccccc21 [SMR000523491]
EC50: > 300 µM

CCCNC(=O)c1ccc(Cl)cc1Cl [SMR000528064]
EC50: > 300 µM

CC(=O)Nc1ccc(Cc2nc3c([nH]2)c(=O)n(C)c(=O)n3C)cc1 [SMR000528148]
EC50: > 300 µM

O=C(O)c1cccc(Nc2nc(-c3ccccc3)nc3ccccc23)c1 [SMR000538934]
EC50: > 300 µM

Cc1ccc(C(=O)c2coc3ccc(O)cc23)cc1 [SMR000539213]
EC50: 11.2 µM

COc1ccc2occ(C(=O)c3ccc(N)cc3)c2c1 [SMR000539215]
EC50: 14.7 µM

CC(C)N1C(=O)N(c2ccc(Cl)cc2)C(C)(O)CC1(C)C (stereo not drawn) [SMR000539554]
EC50: > 300 µM

O=C(O)Cn1cc(CN=Nc2ccc([N+](=O)[O-])cn2)c2ccccc21 [SMR000540193]
EC50: 8.24 µM

CCC(C)Nc1nc(N)c([N+](=O)[O-])c(NC2CCCCC2)n1 (stereo not drawn) [SMR000540397]
EC50: 2.39 µM

Nc1nc(NCCOCCO)nc(NC2CCCCC2)c1[N+](=O)[O-] [SMR000540405]
EC50: 3.01 µM

CCCC(=O)Nc1nn(CC(C)C)c2nc3cc(C)ccc3cc12 [SMR000540561]
EC50: > 300 µM

COc1ccccc1Nc1nc(N(C)c2ccccc2)nc(N)c1[N+](=O)[O-] [SMR000542836]
EC50: > 300 µM

CCn1nc(NC(=O)CC(C)C)c2cc3cccc(C)c3nc21 [SMR000542878]
EC50: > 300 µM

Nc1nc(O)c(N=Nc2ccc(S(N)(=O)=O)cc2)c(=O)[nH]1 [SMR000543013]
EC50: > 300 µM

CSc1nc(NCCCN(C)C)c2c3c(sc2n1)CN(C)CC3 [SMR000543143]
EC50: > 300 µM

COC(CSc1nc(N)c2c3c(sc2n1)CN(C)CC3)OC [SMR000543145]
EC50: > 300 µM

Cc1ccc2c(CN3CCN(Cc4ccccc4)CC3)cc(=O)oc2c1C [SMR000543581]
EC50: > 300 µM

COc1ccc(C(=O)/C=C2/C(=O)Nc3ccccc32)c(OC)c1 [SMR000543845]
EC50: > 300 µM

COCCN(CCOC)Cc1c(O)ccc2c1O/C(=C\c1ccco1)C2=O [SMR000544009]
EC50: > 300 µM

O=C(O)Cn1c(=O)c2c3c(sc2n(Cc2ccccc2F)c1=O)CCCC3 [SMR000544593]
EC50: > 300 µM

N#Cc1c(Cl)nc(-c2ccncc2)nc1-c1ccccc1 [SMR000549420]
EC50: 15.2 µM

CN(C)c1nc(-c2cccnc2)nc(-c2ccccc2)c1C#N [SMR000549421]
EC50: > 300 µM

CC(C)Nc1nc(-c2ccncc2)nc(-c2ccccc2)c1C#N [SMR000549424]
EC50: > 300 µM

O=C1Nc2ccccc2Nc2ccc([N+](=O)[O-])cc21 [SMR000550741]
EC50: 25.4 µM

C[n+]1ccccc1C=Cc1cc(Br)ccc1O [SMR000554448]
EC50: > 300 µM

CC(C)c1ccc(NC2=CC(=O)CC(C)(C)C2)cc1 [SMR000558851]
EC50: > 300 µM

CC(C(=O)NCc1ccccc1)n1cc([N+](=O)[O-])cn1 (stereo not drawn) [SMR000559338]
EC50: > 300 µM

Cc1nc(Nc2ccccc2)sc1C(=O)c1ccc(F)cc1 [SMR000567585]
EC50: > 300 µM

COc1ccc(CNCC2COc3ccccc3O2)cc1 (stereo not drawn) [SMR000588087]
EC50: > 300 µM

O=C(c1ccccc1)c1ccc(NCCCn2ccnc2)c([N+](=O)[O-])c1 [SMR000588423]
EC50: 6.85 µM

O=C(OCc1ccc(COC(=O)c2ccc(O)cc2)cc1)c1ccc(O)cc1 [SMR000588531]
EC50: > 300 µM

Cc1cc(=O)[nH]c(N=NCc2ccc(-c3ccc([N+](=O)[O-])cc3)o2)n1 [SMR000589712]
EC50: > 300 µM

COCCn1c(SCC(=O)NC(C)c2ccccc2)nc2ccccc21 (stereo not drawn) [SMR000590006]
EC50: > 300 µM

OC(CNc1nc(-c2cccnc2)nc2ccccc12)c1ccccc1 (stereo not drawn) [SMR000592049]
EC50: > 300 µM

NS(=O)(=O)c1ccc(N/N=C2\C(=O)Nc3ccc(Br)cc32)cc1 [SMR000592222]
EC50: > 300 µM

COc1ccc2nc(C)cc(N3CCN(c4ccccc4)CC3)c2c1 [SMR000595708]
EC50: 29.5 µM

COc1cccc(CNC(=O)C2CCN(S(=O)(=O)c3ccc(-n4cnnn4)cc3)CC2)c1 [SMR000600329]
EC50: > 300 µM

COc1ccc(CNC(=O)CN(Cc2ccc(OC)cc2)C(=O)CCC(=O)Nc2ccccn2)cc1 [SMR000600506]
EC50: 52.5 µM

COc1ccc(CNC(=O)CN(Cc2ccco2)C(=O)CCC(=O)Nc2ccccn2)cc1 [SMR000600509]
EC50: > 300 µM

CCn1c(SCC(=O)Nc2ccc(N(C)C)cc2)nnc1C1CC1 [SMR000601384]
EC50: > 300 µM

O=C(CCS(=O)(=O)c1ccccc1)Nc1ncc([N+](=O)[O-])s1 [SMR000605858]
EC50: > 300 µM

COc1ccc(C(=O)ON=C(N)c2ccccn2)cc1 [SMR000608101]
EC50: 13.2 µM

CCCN(CCC)Cc1c(C(=O)NN=Cc2ccsc2)nnn1-c1nonc1N [SMR000620321]
EC50: 4.13 µM

CCOc1ccccc1C=NNC(=O)c1nnn(-c2nonc2N)c1CN1CCC(C)CC1 [SMR000620330]
EC50: > 300 µM

CC1CCN(Cc2c(C(=O)NN=Cc3ccccc3O)nnn2-c2nonc2N)CC1 [SMR000620333]
EC50: 0.7 µM

CCN(CC)Cc1c(C(=O)NN=Cc2c(Cl)cccc2Cl)nnn1-c1nonc1N [SMR000620609]
EC50: > 300 µM

Nc1nonc1-n1nnc(C(=O)NN=Cc2cc(Cl)ccc2O)c1CN1CCCCCC1 [SMR000620619]
EC50: 8.67 µM

Nc1nonc1-n1nnc(C(=O)NN=Cc2ccccc2Br)c1CN1CCCC1 [SMR000620637]
EC50: 1.57 µM

COc1cccc(/C=C2\Sc3ccc(C(=O)NCC4CCCO4)cc3N(C)C2=O)c1 (stereo not drawn) [SMR000622267]
EC50: > 300 µM

COc1ccc(-c2cc(C(=O)N3CCN(C(=O)c4ccco4)CC3)[nH]n2)cc1 [SMR000623613]
EC50: > 300 µM

CCc1nn(CC(=O)NCCCc2ccccc2)c(=O)c2cc3c(OC)cccc3n12 [SMR000624506]
EC50: > 300 µM

COc1ccc2c(c1)cc1c(=O)n(CC(=O)NCCCN3CCOCC3)nc(C)n12 [SMR000624522]
EC50: > 300 µM

CN1CCN(C(=O)CCS(=O)(=O)c2cc3c(cc2Cl)NC(=O)CO3)CC1 [SMR000627499]
EC50: > 300 µM

NC(=O)C1CCN(c2nc3c(S(=O)(=O)c4ccccc4)nnn3c3ccccc23)CC1 [SMR000629006]
EC50: > 300 µM

CCOc1ccc(CNC(=O)Cn2ccc3cc(S(=O)(=O)N4CCCCCC4)ccc32)cc1 [SMR000629622]
EC50: > 300 µM

CCOc1ccccc1CNC(=O)CCn1ccc2cc(S(=O)(=O)N3CCCCC3)ccc21 [SMR000629632]
EC50: > 300 µM

COc1cccc(CNS(=O)(=O)c2cc(CN3C(=O)c4cccnc4C3=O)ccc2OC)c1 [SMR000630004]
EC50: > 300 µM

Cc1ccc(NC(=O)C2CCN(S(=O)(=O)c3ccc4c(c3)NC(=O)C(C)S4)CC2)c(Cl)c1 (stereo not drawn) [SMR000630224]
EC50: > 300 µM

CCOC(=O)c1ccc(NS(=O)(=O)c2ccc3c(c2)NC(=O)CCS3)cc1 [SMR000630284]
EC50: > 300 µM

CCOC(=O)c1c(C)[nH]c(C)c1S(=O)(=O)N(C)CC(=O)Nc1ccccc1 [SMR000630545]
EC50: > 300 µM
